Test results from patent US20250228832A1, “METHODS FOR TREATING DISORDERS AMELIORATED BY MUSCARINIC RECEPTOR ACTIVATION” (KARUNA THERAPEUTICS, INC., priority 2022, published 2025).
Where two headings read alike, the source gives them in different places.

Key:
Type in all cases: cell-based
human M1 receptor = target: T1, human M1 receptor (Homo sapiens, UniProt P11229); test: HTRF IP-One curve shift assay, M1
T1 construct: expressed in transfected cells
T1 sequence (P11229 1-460): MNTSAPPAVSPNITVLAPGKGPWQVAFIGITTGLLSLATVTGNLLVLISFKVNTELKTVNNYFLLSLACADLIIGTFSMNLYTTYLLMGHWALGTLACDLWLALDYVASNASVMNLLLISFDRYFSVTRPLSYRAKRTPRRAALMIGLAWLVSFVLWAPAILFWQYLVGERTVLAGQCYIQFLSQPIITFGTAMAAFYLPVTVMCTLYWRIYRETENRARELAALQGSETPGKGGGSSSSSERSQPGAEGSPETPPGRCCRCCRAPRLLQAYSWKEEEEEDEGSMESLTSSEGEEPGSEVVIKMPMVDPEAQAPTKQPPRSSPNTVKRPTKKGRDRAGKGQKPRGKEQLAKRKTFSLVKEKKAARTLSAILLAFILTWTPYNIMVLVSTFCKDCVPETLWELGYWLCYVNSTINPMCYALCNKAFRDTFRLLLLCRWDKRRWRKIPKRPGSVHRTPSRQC
Procedure: (§1) HTRF IP-One assays were performed using frozen cell aliquots prepared from CHO-K1 cell lines stably expressing human M1, M3, or M5 receptors. Cells were frozen following typical cell freezing protocols. […] Dissociated cells were quenched in full media and collected by centrifugation at 290×g for 5 min. […] 1 mL aliquots of cells were dispensed into cryovial tubes and frozen in a controlled rate cryo-freezer container at −80° C. Cells were stored at −80° C. (or in liquid nitrogen if stored for at least six months) until the day of the assay.
(§2) On the day before the assay, frozen cells were rapidly thawed in a 37° C. water bath, brought up in 20 mL of full media, and collected via centrifugation at 290×g for 5 min. […] Next, […] of cells (10,000 cells/well) were dispensed into 384-well coming plates in triplicate. Cells were incubated overnight in a 37° C., 5% CO2 cell incubator.
(§3) Then, 2 μL of test compounds were added to the cells and incubated for 10 min at 37° C. in a 5% CO2 cell incubator. Next, 2 μL of diluted agonists serially diluted in assay buffer at 7× final assay concentration was added to assay plates. Finally, assay plates were incubated for two hours at 37° C. in a 5% CO2 cell incubator.
(§4) Six μL of IP-1 detection reagents (IP-One Gq HTRF kit, Cisbio Cat #62IPAPEJ) were dispensed to the cells. First, the plates were incubated for two hours at room temperature (IP-One detection reagents were made according to Cisbio protocol). Then, plates were read on an Envision plate reader following the Cisbio guidelines.
(§5) Raw data for all assays was transmitted directly from plate readers into the Beacon database for processing. All assay plates contained positive and negative control wells for data normalization and scaling. […] All control wells contained DMSO at a final assay concentration that matched the test compound wells.
(§6) Counts from the standard curve wells were used to generate a sigmoidal standard curve, which was used to transform the raw counts from each well on the plate (scaling control wells and compound wells) into a pmol/well IP1 value.

human M3 receptor = target: T2, human M3 receptor (Homo sapiens, UniProt P20309); test: HTRF IP-One curve shift assay, M3
T2 construct: expressed in transfected cells
Procedure: as §1, §2, §3, §4, §5, §6

human M5 receptor = target: T3, human M5 receptor (Homo sapiens, UniProt P08912); test: HTRF IP-One curve shift assay, M5; conditions: M5
T3 construct: expressed in transfected cells
T3 sequence (P08912 1-532): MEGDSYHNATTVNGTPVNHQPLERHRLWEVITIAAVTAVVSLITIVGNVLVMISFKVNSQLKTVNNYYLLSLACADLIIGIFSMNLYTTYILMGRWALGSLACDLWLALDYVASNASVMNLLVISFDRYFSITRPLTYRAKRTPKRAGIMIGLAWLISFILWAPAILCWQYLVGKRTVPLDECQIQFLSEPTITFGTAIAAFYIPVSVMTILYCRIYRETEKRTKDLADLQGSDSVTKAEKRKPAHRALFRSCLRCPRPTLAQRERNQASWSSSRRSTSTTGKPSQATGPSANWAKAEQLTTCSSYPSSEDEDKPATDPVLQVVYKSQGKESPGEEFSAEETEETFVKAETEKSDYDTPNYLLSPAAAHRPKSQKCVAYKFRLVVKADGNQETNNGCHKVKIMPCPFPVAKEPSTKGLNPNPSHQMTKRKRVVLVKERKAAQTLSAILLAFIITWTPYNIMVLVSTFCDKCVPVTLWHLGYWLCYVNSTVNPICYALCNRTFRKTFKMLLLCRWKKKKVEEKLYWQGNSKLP
Procedure: as §1, §2, §3, §4, §5, §6

[1] = Emraclidine concentration 41.2 nM, read-out: Emax
[2] = Emraclidine concentration 123 nM, read-out: Emax
[3] = Emraclidine concentration 370 nM
[4] = Emraclidine concentration 1110 nM, read-out: Emax
[5] = Emraclidine concentration 3330 nM, read-out: Emax
[6] = MK-4710 concentration 41.2 nM, read-out: Emax
[7] = MK-4710 concentration 123 nM, read-out: Emax
[8] = MK-4710 concentration 1110 nM, read-out: Emax
[9] = MK-4710 concentration 3330 nM, read-out: Emax

T2 sequence (P20309 whole entry): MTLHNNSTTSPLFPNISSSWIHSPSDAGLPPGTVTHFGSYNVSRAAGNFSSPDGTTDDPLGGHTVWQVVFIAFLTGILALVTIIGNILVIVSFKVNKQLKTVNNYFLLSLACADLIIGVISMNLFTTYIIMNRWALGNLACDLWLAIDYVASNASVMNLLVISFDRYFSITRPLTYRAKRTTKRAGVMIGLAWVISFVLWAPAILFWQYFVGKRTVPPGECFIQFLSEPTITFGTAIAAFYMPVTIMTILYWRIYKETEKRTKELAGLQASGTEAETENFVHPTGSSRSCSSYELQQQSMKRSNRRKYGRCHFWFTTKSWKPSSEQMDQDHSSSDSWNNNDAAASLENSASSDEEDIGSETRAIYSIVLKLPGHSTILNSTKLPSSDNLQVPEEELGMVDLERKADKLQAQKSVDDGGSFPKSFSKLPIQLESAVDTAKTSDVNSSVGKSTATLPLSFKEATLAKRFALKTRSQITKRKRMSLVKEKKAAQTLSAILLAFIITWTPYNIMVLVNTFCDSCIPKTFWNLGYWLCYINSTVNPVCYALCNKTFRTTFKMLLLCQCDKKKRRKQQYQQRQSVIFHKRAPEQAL

CC1OC2(CS1)CN1CCC2CC1 (stereo not drawn) [cevimeline, Cevimeline, reference compound]
EC50 (human M1 receptor; Emraclidine concentration 0 nM): 1190 nM
Emax (human M1 receptor; Emraclidine concentration 0 nM): 73.6%
Emax (human M1 receptor; [1]): 81.4%
Emax (human M1 receptor; [2]): 90.4%
Emax at […] (human M1 receptor; [3]): 95.1%
Emax (human M1 receptor; [4]): 100%
Emax (human M1 receptor; [5]): 103%
Emax at […] (human M1 receptor; Emraclidine concentration […]): 73.2%
α (cooperativity, affinity shift) (human M1 receptor; M4 PAM Emraclidine): 1.0
β (cooperativity, efficacy shift) (human M1 receptor; M4 PAM Emraclidine): 1.2
τ (agonist pharmacology) (human M1 receptor; M4 PAM Emraclidine): 0.0
α (cooperativity, affinity shift) (human M1 receptor; M4 PAM MK-4710): 3.0
β (cooperativity, efficacy shift) (human M1 receptor; M4 PAM MK-4710): 0.5
τ (agonist pharmacology) (human M1 receptor; M4 PAM MK-4710): 0.0
EC50 (human M1 receptor; MK-4710 concentration 0 nM): 1750 nM
Emax (human M1 receptor; MK-4710 concentration 0 nM): 86.1%
Emax (human M1 receptor; [6]): 102%
Emax (human M1 receptor; [7]): 97.1%
Emax at […] (human M1 receptor; MK-4710 concentration 370 nM): 92.3%
Emax (human M1 receptor; [8]): 83.6%
Emax (human M1 receptor; [9]): 69.9%
Emax at […] (human M1 receptor; MK-4710 concentration […]): 88.8%
EC50 (human M3 receptor; Emraclidine concentration 0 nM): 3.27 µM
Emax (human M3 receptor; Emraclidine concentration 0 nM): 97.9%
Emax (human M3 receptor; [1]): 96.7%
Emax (human M3 receptor; [2]): 83.8%
Emax at […] (human M3 receptor; [3]): 87.8%
Emax (human M3 receptor; [4]): 125%
Emax (human M3 receptor; [5]): 83.9%
Emax at […] (human M3 receptor; Emraclidine concentration […]): 77.3%
α (cooperativity, affinity shift) (human M3 receptor; M4 PAM Emraclidine): 1.0
β (cooperativity, efficacy shift) (human M3 receptor; M4 PAM Emraclidine): 1.1
τ (agonist pharmacology) (human M3 receptor; M4 PAM Emraclidine): 0.1
α (cooperativity, affinity shift) (human M3 receptor; M4 PAM MK-4710): 2.1
β (cooperativity, efficacy shift) (human M3 receptor; M4 PAM MK-4710): 0.6
τ (agonist pharmacology) (human M3 receptor; M4 PAM MK-4710): 0.0
EC50 (human M3 receptor; MK-4710 concentration 0 nM): 6.36 µM
Emax (human M3 receptor; MK-4710 concentration 0 nM): 118.7%
EC50 (human M3 receptor; MK-4710 concentration 41.2 nM): 7.6 µM
Emax (human M3 receptor; [6]): 151%
EC50 (human M3 receptor; MK-4710 concentration 123 nM): 4.88 µM
Emax (human M3 receptor; [7]): 137%
EC50 (human M3 receptor; MK-4710 concentration 370 nM): 9.67 µM
Emax at […] (human M3 receptor; MK-4710 concentration 370 nM): 163%
EC50 (human M3 receptor; MK-4710 concentration 1110 nM): 11.2 µM
Emax (human M3 receptor; [8]): 150%
EC50 (human M3 receptor; MK-4710 concentration 3330 nM): 4.11 µM
Emax (human M3 receptor; [9]): 93.1%
EC50 (human M3 receptor; MK-4710 concentration […]): 11.5 µM
Emax at […] (human M3 receptor; MK-4710 concentration […]): 159%
EC50 (human M5 receptor; Emraclidine concentration 0 nM): 1370 nM
Emax (human M5 receptor; Emraclidine concentration 0 nM): 90.54%
Emax (human M5 receptor; [1]): 92.7%
Emax (human M5 receptor; [2]): 93.5%
Emax at […] (human M5 receptor; Emraclidine concentration 370 nM, read-out: Emax): 105%
Emax (human M5 receptor; [4]): 103%
Emax (human M5 receptor; [5]): 106%
Emax at […] (human M5 receptor; Emraclidine concentration […], read-out: Emax): 102%
α (cooperativity, affinity shift) (human M5 receptor; M4 PAM Emraclidine): 1.0
β (cooperativity, efficacy shift) (human M5 receptor; M4 PAM Emraclidine): 0.5
τ (agonist pharmacology) (human M5 receptor; M4 PAM Emraclidine): 0.1
α (cooperativity, affinity shift) (human M5 receptor; M4 PAM MK-4710): 1.0
β (cooperativity, efficacy shift) (human M5 receptor; M4 PAM MK-4710): 1.4
τ (agonist pharmacology) (human M5 receptor; M4 PAM MK-4710): 0.1
EC50 (human M5 receptor; MK-4710 concentration 0 nM): 3720 nM
Emax (human M5 receptor; MK-4710 concentration 0 nM): 70.31%
Emax (human M5 receptor; [6]): 95.2%
Emax (human M5 receptor; [7]): 88.2%
Emax at […] (human M5 receptor; MK-4710 concentration 370 nM, read-out: Emax): 91.1%
Emax (human M5 receptor; [8]): 78.3%
Emax (human M5 receptor; [9]): 91.2%
Emax at […] (human M5 receptor; MK-4710 concentration […], read-out: Emax): 97.3%
